What was measured:
[1] = Transmission test to the brain (brain uptake clearance, LC/MS); format: in vivo; settings: male SD rat, 1 mg/kg intravenous
Experimental: PE50 tubes are independently inserted into the femoral vein and femoral artery of a 250 g male SD rat, and syringes individually containing physiological saline solution and heparin (25 I.U.) are connected to tubes, respectively. The macelignan isolated and purified in Example 1 was dissolved in DMSO, and intravenously administered into the rat in the amount of 1 mg/kg. 400 μl of the blood samples were collected from the artery at 0.5, 1, 1.5 and 2 minutes after administration. After last sampling, the head of the rat was rapidly cut, and the brain tissue was extracted and slightly washed with physiological saline solution.
The blood sample prepared in the Example <7-1> was centrifuged at 3,000 rpm for 5 minutes to obtain 100 μl of blood plasma. 500 μl of ethylacetate was added into the blood plasma and the mixture was agitated with a vortex mixer for 10 minutes. Then, the mixture was centrifuged at 3,000 rpm for 5 minutes to obtain 400 μl of the supernatant. […]
The weight of the brain tissue sample prepared in the Example <7-1> was measured, and then saline solution corresponding to the weight of 2 times higher than that of the brain tissue was added into the brain tissue and the mixture was homogenized. […]
The blood sample and brain tissue sample treated in the Example <7-2> were introduced into the LC/MS system, and then the LC/MS analysis was performed according to the method of the Example <7-3> and the area of a macelignan peak was obtained on the chromatograph. The concentration of macelignan was calculated by using the area of the macelignan peak through the standard curve prepared in the Example <7-3>.
In a time-concentration graph of macelignan obtained in the blood sample through the Example <7-4>, AUC0^t (Area Under Curve: AUC) from 0 to the last sample time “tlast”, was obtained with a trapezoidal method (Schaum's Outline of Mathematica, MaGraw-Hill, 2000). Additionally, the amount(Xb) of macelignan was calculated using the concentration of the brain tissue sample. AUC of macelignan may be calculated using the mathematical equation 1. […]

cell line HT-22 [2] = assay: Brain cell apoptosis induced by glutamate in HT-22 (WST-1); format: cell-based; settings: HT-22, 5 mM glutamate 24 hours, compound 1, 2, 5 and 10 μM
Experimental: A cell line HT-22 derived from the hippocampus was treated with 5 mM glutamate for 24 hours to induce apoptosis. As a control, the cell line HT-22 was not treated with glutamate. Then, the cell line HT-22 was treated with the lignan compound of the present invention at concentrations (1, 2, 5 and 10 μM) for 24 hours. The cell death was analyzed with WST-1(Roche).

cell line HT-22 [3] = assay: Cytotoxicity in cell line HT-22; format: cell-based; settings: HT-22, 1, 5 and 10 μM, 24 hours, stated for 10 μM
Experimental: In order to examine the cytotoxicity effect of macelignan itself, a cell line HT-22 derived from the hippocampus was treated with macelignan at concentrations (1, 5 and 10 μM) for 24 hours.

## COc1cc(C[C@H](C)[C@H](C)Cc2ccc3c(c2)OCO3)ccc1O [macelignan, (8R,8′S)-7-(3,4-methylenedioxyphenyl)-7′-(4-hydroxy-3-methoxyphenyl)-8,8′-dimethylbutane]
[1]; brain and plasma, Xb/AUC, read-out: CLuptake (brain uptake clearance)
  clearance: 0.203 ± 0.039 mL/min
[1]; brain taken after the 2 minute sample
  Xb (amount of macelignan in the brain): 7.90 ± 1.52 µg
[1]; plasma 0 to 2 minutes, trapezoidal method
  AUC: 648 ng·h/mL
Cell line HT-22 [2]
  brain cell apoptosis induced by glutamate: dose-dependently inhibited
Cell line HT-22 [3]
  cytotoxicity: did not induce cytotoxicity
Cell line HT-22 [3]; listed as lignan compound of the present invention
  cytotoxicity: did not show cytotoxicity

— patent publication US20080275111A1, “Novel Use of Lignan Compounds” (priority 2005, published 2008)
